{
  "source": "patent US8029814B2",
  "about": "“Male produced pheromone in Tetropium fuscum (F.) and Tetropium cinnamopterum (kirby) (coleoptera: cerambycidae)” (Her Majesty the Queen in Right of Canada as represented by …, priority 2007, dated 2011)",
  "key": {"T. fuscum [1]": {"system": "T. fuscum", "assay": "Field trapping, Colossus traps, McNabs Island, Halifax, 2006", "assay_type": "in vivo, Tetropium fuscum", "conditions": "female and male T. fuscum; compared with host volatiles alone or unbaited traps; 8-week trapping", "text": "(§1) FIG. 3. Mean number (+SE) of male and female T. fuscum (a) and T. cinnamopterum (b) captured in COLOSSUS TRAPS™ (insect traps) baited with synthetic pheromone candidate (P), host volatile lures (HV), P plus host volatiles (P+HV), or un-baited traps, over the entire 8-week trapping period. […] Data for T. fuscum males and females and T. cinnamopterum females were transformed by log (y+1); data for the catch of T. cinnamopterum males were transformed by square root.\n(§2) The synthetic pheromone, alone and in combination with host volatile attractants, was tested in a field experiment on McNabs Island, Halifax, Nova Scotia, from 5 Jul. to 29 Aug. 2006, using COLOSSUS TRAPS™ (insect traps) (PheroTech Inc. Delta, British Columbia) (Sweeney et al. 2006)^4. Unbaited traps and traps baited with host volatiles alone served as controls, for a total of four treatments. Treatments were replicated 15 times in a randomized complete block design with 30 m between traps and blocks. Each trap was suspended from a rope tied between two conifers separated by at least 2 m, with the collecting bucket 10-20 cm above the ground. […] Pheromone was dispensed at ca. initially 800 μg/d dropping to 50 μg/d over a 4 week period (determined by weight loss at 23° C.) from a polymerase chain reaction (PCR) sample tube (Axygen Scientific Inc., CA) (0.2-mL thick) with a 1 mm diam. hole drilled in the cap. […]"}, "T. cinnamopterum": {"system": "T. cinnamopterum", "assay": "Field trapping, Colossus traps, McNabs Island, Halifax, 2006", "assay_type": "in vivo, Tetropium cinnamopterum", "text": "as §1, §2"}, "T. castaneum [2]": {"system": "T. castaneum", "assay": "Trapping with low, medium or high release of racemic fuscumol or fuscumate plus SB and E lures (FIG. 13)", "assay_type": "in vivo, Tetropium castaneum", "conditions": "added to spruce volatile (SB) and ethanol (E) lures", "method": "FIG. 13 Mean catch of T. castaneum in traps baited with low (1 mg/d), medium (4 mg/d) or high (32 mg/d) of racemic fuscumol plus spruce volatile (SB) and ethanol (E) lures."}, "T. fuscum antennae": {"system": "T. fuscum antennae", "assay": "Electroantennogram (EAG) antennal stimulation", "parameters": "species or system Tetropium fuscum", "conditions": "EAG puffs ca. 30 ng source concentration", "method": "(§3) Extracts (cal male equivalent in hexane) and synthetics (30 ng fuscumol) were tested for antennal stimulation of T. fuscum and T. cinnamopterum males and females using an electroantennogram (EAG) system and EAG/GC-EAD signal recording (IDAC-232) and analysis software v.2.6 (SYNTECH, The Netherlands). Antennae from males and females were excised close to the head and used intact with SPECTRA-60™ gel (electrode gel) (Parker, USA) for electrical contact.\nas §3, with “(ca.1” for “(cal”, “Spectra©-60” for “SPECTRA-60™”, “gel” for “gel (electrode gel)”"}, "T. castaneum [3]": {"system": "T. castaneum", "assay": "Field trapping of fuscumol enantiomers, APT Intercept traps, Bialowieza, Poland, 2007", "assay_type": "in vivo, Tetropium castaneum", "conditions": "in the presence of host volatiles and ethanol", "text": "(§4) FIG. 4. Mean catch of a. Tetropium fuscum and b. T. castaneum in APT INTERCEPT TRAPS™ (insect traps) baited with synthetic fuscumol (pure S—, pure R—, or racemic) alone and combined with host volatile lures (SB=spruce blend, a blend of monoterpenes in an ultra high release rate (UHR) lure; E=ethanol in an UHR lure) in Bialowieza, Poland in 2007.\nTrapping experiments were run in 2007 in Halifax, NS, and Bialowieża, Poland to test the response of Tetropium species to fuscumol, a sex pheromone emitted by male Tetropium fuscum (F.) and male T. cinnamopterum. […] Male T. fuscum emit primarily S-fuscumol so we hypothesized that a synthetic lure of pure S-fuscumol would be more attractive than pure R-fuscumol, and possibly more attractive than racemic fuscumol, especially if R-fuscumol was the major pheromone component of a sympatric sibling species such as T. castaneum. The ultimate objective was to determine if we could improve the efficacy of the lure for use in applications for survey and control of T. fuscum. Conducting the experiment in Poland allowed us to test the response of a different population of T. fuscum from that in Halifax and also to determine the attraction of the pheromone lures to another potentially invasive species, T. castaneum. […]"}, "[4]": {"system": "T. cinnamopterum antennae", "assay": "Electroantennogram (EAG) antennal stimulation", "parameters": "species or system Tetropium cinnamopterum", "conditions": "EAG puffs ca. 30 ng source concentration", "method": "as §3\nas §3, with “(ca.1” for “(cal”, “Spectra©-60” for “SPECTRA-60™”, “gel” for “gel (electrode gel)”"}, "T. fuscum [5]": {"system": "T. fuscum", "assay": "Field trapping of fuscumol enantiomers, APT Intercept traps, Bialowieza, Poland, 2007", "assay_type": "in vivo, Tetropium fuscum", "text": "as §4\nTrapping experiments were run in 2007 in Halifax, NS, and Bialowieża, Poland to test the response of Tetropium species to fuscumol, a sex pheromone emitted by male Tetropium fuscum (F.) and male T. cinnamopterum. […] Male T. fuscum emit primarily S-fuscumol so we hypothesized that a synthetic lure of pure S-fuscumol would be more attractive than pure R-fuscumol, and possibly more attractive than racemic fuscumol, especially if R-fuscumol was the major pheromone component of a sympatric sibling species such as T. castaneum. The ultimate objective was to determine if we could improve the efficacy of the lure for use in applications for survey and control of T. fuscum. Conducting the experiment in Poland allowed us to test the response of a different population of T. fuscum from that in Halifax and also to determine the attraction of the pheromone lures to another potentially invasive species, T. castaneum.\nThere were eight different lure treatments: S-fuscumol; R-fuscumol; racemic fuscumol; S-fuscumol+UHR (ultra high release rate) spruce blend lure+UHR ethanol lure; R-fuscumol+UHR spruce blend lure+UHR ethanol lure; racemic fuscumol+UHR spruce blend lure+UHR ethanol lure; UHR spruce blend lure+UHR ethanol lure; and unbaited controls.\nOn McNabs Island near Halifax, NS, COLOSSUS TRAPS™ (insect traps) were used with 15 replicates per treatment and in Bialowieża, APT (Advanced Pheromone Technologies) INTERCEPT TRAPS™ (insect traps) were used with 9 replicates per treatment. The treatments were laid out in randomized complete block designs with 30 m spacing between traps. Traps were out from 15 May to 27 Jun. 2007 on McNabs Island and from 30 Apr. to 25 Jun. 2007 in Bialowieża. […]"}, "T. fuscum [6]": {"system": "T. fuscum", "assay": "Trapping with low, medium or high release of racemic fuscumol or fuscumate plus SB and E lures (FIG. 14)", "assay_type": "in vivo, Tetropium fuscum", "conditions": "added to spruce volatile (SB) and ethanol (E) lures", "method": "FIG. 14 Mean catch of T. fuscum in traps baited with low (1 mg/d), medium (4 mg/d) or high (32 mg/d) of racemic fuscumol plus spruce volatile (SB) and ethanol (E) lures."}},
  "note": "Entries after “also recorded” stand apart in the source; their conditions may differ.",
  "data": [
    {"smiles": "CC(C)=CCC/C(C)=C/CCC(C)O", "note": "(racemic) [racemic fuscumol, (E)-6,10-dimethyl-5,9-undecadien-2-ol]", "values": [
      {"measurement": "trap catch compared among lure treatments", "setting": "T. fuscum [1]", "result": "did not differ from that in unbaited traps"},
      {"measurement": "trap catch compared with unbaited traps", "setting": "T. cinnamopterum; T. cinnamopterum, fuscumol alone", "result": "did not differ from that in unbaited traps"},
      {"measurement": "response of male T. cinnamopterum", "setting": "T. cinnamopterum; males", "result": "Lack of response"},
      {"measurement": "catch compared to SB+E", "setting": "T. castaneum [2]", "result": "significantly increased catch"},
      {"measurement": "antennal response in females relative to males", "setting": "T. fuscum antennae", "result": "2-3 times"},
      {"measurement": "antennal response (EAG)", "setting": "T. fuscum antennae; females, n=5", "result": "6.05 ± 0.3", "unit": "mV"},
      {"measurement": "attraction of T. castaneum", "setting": "T. castaneum [3]", "result": "attracted"},
      {"measurement": "antennal response in females relative to males", "setting": "[4]", "result": "2-3 times"},
      {"measurement": "antennal response (EAG)", "setting": "[4]; females, n=5", "result": "1.7 ± 0.2", "unit": "mV"}
    ]},
    {"smiles": "CC(C)=CCC/C(C)=C/CC[C@@H](C)O", "note": "[R-fuscumol]", "values": [
      {"measurement": "attraction of T. fuscum to S-fuscumol in the presence of R-fuscumol", "setting": "T. fuscum [5]; racemic versus S-fuscumol", "result": "not reduced"}
    ]},
    {"smiles": "CC(C)=CCC/C(C)=C/CC[C@H](C)O", "note": "[S-fuscumol, (2S, 5E)-6,10-dimethyl-5,9-undecadien-2-ol]", "values": [
      {"measurement": "attractiveness compared with R-fuscumol or an unbaited trap", "setting": "T. fuscum [5]; without host volatile lures", "result": "significantly more attractive"},
      {"measurement": "mean catch compared with racemic fuscumol", "setting": "T. fuscum [5]; without host volatile lures", "result": "did not differ significantly"},
      {"measurement": "attraction of T. castaneum", "setting": "T. castaneum [3]", "result": "attracted"}
    ]},
    {"smiles": "CC(=O)OC/C=C(\\C)CCC=C(C)C", "note": "[fuscumate, geranyl acetate]", "values": [
      {"measurement": "catch compared to SB+E", "setting": "T. fuscum [6]", "result": "did not boost catch; also recorded: no effect on attraction"},
      {"measurement": "catch compared to SB+E", "setting": "T. castaneum [2]", "result": "did not boost catch; also recorded: no effect on attraction"}
    ]}
  ]
}
